Inconclusive results and toxic doses are left out. Rule for the calls: active = survival T/C of 150% or more; inactive = T/C below 125% in these data.
Test system: CD2F1 mice, L1210 leukemia ip, survival T/C
Assay: NCI In Vivo Anticancer Drug Screen. Data for tumor model L1210 Leukemia (intraperitoneal) in CD2F1 (CDF1) mice
Conditions: endpoint: mean survival time, higher = longer survival
Outline: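 Implant tumor; dose compound or vehicle; measure endpoint in both groups; report treated divided by control.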

[1] = dose: 100.0 mg/kg/injection, schedule: Q01DX009 (ip), vehicle: saline with Tween-80
[2] = dose: 200.0 mg/kg/injection, schedule: Q01DX009 (ip), vehicle: saline with Tween-80
[3] = dose: 400.0 mg/kg/injection, schedule: Q01DX009 (ip), vehicle: saline with Tween-80
[4] = dose: 100.0 mg/kg/injection, schedule: Q01DX001 (ip), vehicle: saline with Tween-80
[5] = dose: 200.0 mg/kg/injection, schedule: Q01DX001 (ip), vehicle: saline with Tween-80
[6] = dose: 50.0 mg/kg/injection, schedule: Q01DX009 (ip), vehicle: saline with Tween-80

Measured: T/C

CCOc1ccc(/C=C/C(=O)c2ccc(C)cc2)cc1OCC
inactive: dose: 37.5 mg/kg/injection, schedule: Q01DX009 (ip), vehicle: saline 98 % of control | dose: 75.0 mg/kg/injection, schedule: Q01DX009 (ip), vehicle: saline 98 % of control | dose: 150.0 mg/kg/injection, schedule: Q01DX009 (ip), vehicle: saline 113 % of control

COc1cc(C(C)=O)cc(OCc2ccccc2)c1OC
inactive: [1] 100 % of control | [2] 102 % of control | [3] 96 % of control

CSC(N)=Nc1ccc(C(=O)O)cc1
inactive: dose: 100.0 mg/kg/injection, schedule: Q04DX003 (ip), vehicle: saline with Tween-80 100 % of control | dose: 200.0 mg/kg/injection, schedule: Q04DX003 (ip), vehicle: saline with Tween-80 94 % of control | dose: 400.0 mg/kg/injection, schedule: Q04DX003 (ip), vehicle: saline with Tween-80 94 % of control

CCn1c(=O)c2nc(Cl)n(C3OCC(OC(C)=O)C(OC(C)=O)C3OC(C)=O)c2n(CC)c1=O (centres undefined)
inactive: dose: 12.5 mg/kg/injection, schedule: Q01DX005 (ip), vehicle: distilled water + Tween-80 96 % of control | dose: 25.0 mg/kg/injection, schedule: Q01DX005 (ip), vehicle: distilled water + Tween-80 96 % of control | dose: 50.0 mg/kg/injection, schedule: Q01DX005 (ip), vehicle: distilled water + Tween-80 96 % of control | dose: 100.0 mg/kg/injection, schedule: Q01DX005 (ip), vehicle: distilled water + Tween-80 98 % of control | dose: 200.0 mg/kg/injection, schedule: Q01DX005 (ip), vehicle: distilled water + Tween-80 98 % of control

OCC1OC(n2cnc3c([Se]Cc4ccccn4)ncnc32)C(O)C1O (centres undefined)
inactive: dose: 3.12 mg/kg/injection, schedule: Q01DX009 (ip), vehicle: saline 102 % of control | dose: 6.25 mg/kg/injection, schedule: Q01DX009 (ip), vehicle: saline 113 % of control | dose: 12.5 mg/kg/injection, schedule: Q01DX005 (ip), vehicle: saline 100 % of control | dose: 12.5 mg/kg/injection, schedule: Q01DX009 (ip), vehicle: saline 111 % of control

CCCCOc1ccccc1NC(=O)CCl
inactive: [1] 97 % of control | [2] 92 % of control | [3] 95 % of control

CCOn1nc(-c2cccc3ccccc23)oc1=O
inactive: [4] 91 % of control | [5] 95 % of control | dose: 400.0 mg/kg/injection, schedule: Q01DX001 (ip), vehicle: saline with Tween-80 95 % of control

CCN(CC)CCNc1ncnc(N)c1C(=C(C)C)c1ccc(Cl)cc1
inactive: [6] 96 % of control | [4] 94 % of control | [1] 96 % of control | [5] 86 % of control | [2] 87 % of control

OC1CCCC2CCCNC12 (centres undefined)
inactive: dose: 1.25 mg/kg/injection, schedule: Q01DX009 (ip), vehicle: Klucel (hydroxypropylcellulose) (HPC) 109 % of control | dose: 3.12 mg/kg/injection, schedule: Q01DX009 (ip), vehicle: saline with Tween-80 98 % of control | dose: 6.25 mg/kg/injection, schedule: Q01DX009 (ip), vehicle: saline with Tween-80 88 % of control | dose: 12.5 mg/kg/injection, schedule: Q01DX009 (ip), vehicle: saline with Tween-80 103 % of control | dose: 25.0 mg/kg/injection, schedule: Q01DX009 (ip), vehicle: Klucel (hydroxypropylcellulose) (HPC) 107 % of control | dose: 25.0 mg/kg/injection, schedule: Q01DX009 (ip), vehicle: saline with Tween-80 104 % of control | dose: 50.0 mg/kg/injection, schedule: Q01DX009 (ip), vehicle: Klucel (hydroxypropylcellulose) (HPC) 98 % of control | [6] 110 % of control

CC12CCC(=O)C=C1CCC1C2CCC2(C)C1CCC2(O)C(=O)Cn1c(=O)[nH]cc(F)c1=O (centres undefined)
inactive: dose: 12.5 mg/kg/injection, schedule: Q04DX003 (ip), vehicle: Klucel (hydroxypropylcellulose) (HPC) 93 % of control | dose: 25.0 mg/kg/injection, schedule: Q04DX003 (ip), vehicle: Klucel (hydroxypropylcellulose) (HPC) 96 % of control | dose: 50.0 mg/kg/injection, schedule: Q04DX003 (ip), vehicle: Klucel (hydroxypropylcellulose) (HPC) 93 % of control | dose: 100.0 mg/kg/injection, schedule: Q04DX003 (ip), vehicle: Klucel (hydroxypropylcellulose) (HPC) 100 % of control | dose: 200.0 mg/kg/injection, schedule: Q04DX003 (ip), vehicle: Klucel (hydroxypropylcellulose) (HPC) 96 % of control

NCc1ccc([N+](=O)[O-])cc1Cl
inactive: [6] 94 % of control | [1] 94 % of control

From PubChem BioAssay AID256 (DTP/NCI, 2004)
